Test [1] has as its system Puccinia recondita. In words: Protective activity against brown rust of wheat (Puccrt P1), greenhouse. The format is in vivo, Puccinia recondita on wheat seedlings. The settings on record: 63 ppm active compound, protective spray 1 day before inoculation, assessed visually after further 7 days; untreated plants 90% infected. As for the experimental part: (§1) The active compounds were prepared separately or jointly as a stock solution comprising 25 mg of active compound which was made up to 10 ml using a mixture of acetone and/or DMSO and the emulsifier Wettol EM 31 (wetting agent having emulsifying and dispersing action based on ethoxylated alkylphenols) in a volume ratio of solvent/emulsifier of 99:1. The mixture was then made up to 100 ml with water. This stock solution was diluted with the solvent/emulsifier/water mixture described to give the concentration of active compounds stated below.
Leaves of potted wheat seedlings were sprayed to run off point with an aqueous suspension having the active compound concentration stated below. The next day, the treated plants were inoculated with a spore suspension of brown rust of wheat (Puccinia recondita). The plants were then placed in a chamber with high atmospheric humidity (90 to 95%) at 20 to 22° C. for 24 hours. During this time, the spores germinated and the germ tubes penetrated into the leaf tissue. The next day, the test plants were returned to the greenhouse and cultivated at temperatures between 20 and 22° C. and 65 to 70% relative atmospheric humidity for a further 7 days. The extent of the rust fungus development on the leaves was then determined visually.

The subject of test [2] is Sphaerotheca fuliginea. In words: Activity against mildew on cucumber leaves, protective application (Sphrfu P1), greenhouse. It is filed as in vivo, Sphaerotheca fuliginea on cucumber seedlings. The following applies: 63 ppm active compound, protective spray 20 hours before inoculation, assessed visually after 7 days; untreated plants 90% infected. As for the experimental part: as §1
At the cotyledon stage, leaves of potted cucumber seedlings were sprayed to run off point with an aqueous suspension having the active compound concentration below. 20 hours after the spray coating had dried on, the plants were inoculated with an aqueous spore suspension of mildew of cucumber (Sphaerotheca fuliginea). The plants were then cultivated in a greenhouse at temperatures between 20 and 24° C. and 60 to 80% relative atmospheric humidity for 7 days. The extent of the mildew development was then determined visually in % infection of the cotyledon area.

Consider `N#Cc1ccc(C2(Cn3cncn3)OC2c2ccccc2F)c(F)c1` (stereo not drawn) [Compound 69.3, 4-{anti-2-[(1H-1,2,4-triazol-1-yl)methyl]-3-[2-fluorophenyl]oxiran-2-yl}-3-fluorobenzonitrile], for which the “infection (extent of rust fungus development on the leaves)” value in test [1] stood at 0%. Moreover, in test [2], the “infection of the cotyledon area” value was 1%.

For the origin of these results see patent publication US8236788B2, “Azolylmethyloxiranes, use thereof for controlling plant pathogenic fungi, and agents containing the same” (BASF SE, priority 2006, dated 2012).
